Reference: patent US8410153B2, “Naphthalene isoxazoline invertebrate pest control agents” (E.I. du Pont de Nemours and Company, priority 2007, dated 2013)

Key:
Format in all cases: in vivo
[1] = system: diamondback moth (Plutella xylostella); assay: Test A: control of diamondback moth on radish plant, foliar spray; details: sprayed at 50 ppm, held 6 days
Outline: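 Radish plants 12–14 days old, pre-infested with about 50 neonate larvae, sprayed at 50 ppm in 10% acetone/water with 300 ppm X-77 surfactant; three replicates. After 6 days at 25° C and 70% RH, feeding damage was scored visually and mortality counted.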

[2] = system: fall armyworm (Spodoptera frugiperda); assay: Test B: control of fall armyworm on corn (maize) plant, foliar spray; details: sprayed at 50 ppm
Protocol: Test compounds were formulated using a solution containing 10% acetone, 90% water and 300 ppm X-77™ Spreader Lo-Foam Formula non-ionic surfactant containing alkylarylpolyoxyethylene, free fatty acids, glycols and isopropanol (Loveland Industries, Inc. Greeley, Colo., USA). The formulated compounds were applied in 1 mL of liquid through a SUJ2 atomizer nozzle with ⅛ JJ custom body (Spraying Systems Co. Wheaton, Ill., USA) positioned 1.27 cm (0.5 inches) above the top of each test unit. All experimental compounds in these tests were sprayed at 50 ppm, and the test was replicated three times. After spraying of the formulated test compound, each test unit was allowed to dry for 1 h and then a black, screened cap was placed on top. The test units were held for 6 days in a growth chamber at 25° C. and 70% relative humidity. Plant feeding damage was then visually assessed based on foliage consumed, and a pest mortality rating was also counted and calculated for each test unit.
For evaluating control of fall armyworm (Spodoptera frugiperda) the test unit consisted of a small open container with a 4-5-day-old corn (maize) plant inside. This was pre-infested (using a core sampler) with 10-15 1-day-old larvae on a piece of insect diet. Test compounds were formulated and sprayed at 50 ppm as described for Test A and replicated three times. After spraying, the test units were maintained in a growth chamber and then the control efficacy was rated for each test unit as described for Test A.

[3] = system: western flower thrips (Frankliniella occidentalis); assay: Test E: control of western flower thrips on Soleil bean plant, contact and/or systemic; details: held 6 days
Outline: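 5–7-day-old Soleil bean plants were sprayed at 250 or 50 ppm in 10% acetone/90% water with 300 ppm X-77 surfactant, three replicates. After drying 1 h, 22–27 adult thrips were added per unit. Mortality and plant damage were rated after 6 days at 25 °C and 45–55% RH.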

Measured: levels of control efficacy (20% or less feeding damage or 80% or more mortality)

CNC(=O)C(C)NC(=O)c1ccc(C2=NOC(c3cc(F)cc(C(F)(F)F)c3)(C(F)(F)F)C2)c2ccccc12 (mixture of isomers) [Compound 138]
very good to excellent: [1] | [2] | [3]; sprayed at 50 ppm

CC(NC(=O)c1ccc(C2=NOC(c3cc(F)cc(C(F)(F)F)c3)(C(F)(F)F)C2)c2ccccc12)C(=O)NCC(F)(F)F (mixture of isomers) [Compound 139]
very good to excellent: [1] | [2] | [3]; sprayed at 50 ppm

CC(NC(=O)c1ccc(C2=NOC(c3cc(Br)cc(C(F)(F)F)c3)(C(F)(F)F)C2)c2ccccc12)C(=O)NCC(F)(F)F (mixture of isomers) [Compound 140]
very good to excellent: [1] | [2] | [3]; sprayed at 50 ppm

CNC(=O)C(C)NC(=O)c1ccc(C2=NOC(c3cc(Br)cc(C(F)(F)F)c3)(C(F)(F)F)C2)c2ccccc12 (mixture of isomers) [Compound 141]
very good to excellent: [1] | [2] | [3]; sprayed at 50 ppm

CCNC(=O)C(C)NC(=O)c1ccc(C2=NOC(c3cc(Br)cc(C(F)(F)F)c3)(C(F)(F)F)C2)c2ccccc12 (mixture of isomers) [Compound 142]
very good to excellent: [1] | [2] | [3]; sprayed at 50 ppm

CSCCNC(=O)c1ccc(C2=NOC(c3cccc(C(F)(F)F)c3)(C(F)(F)F)C2)c2ccccc12 (racemic) [Compound 34]
very good to excellent: [1] | [2] | [3]; sprayed at 50 ppm | [3]; sprayed at 250 ppm

O=C(CNC(=O)c1ccc(C2=NOC(c3cccc(C(F)(F)F)c3)(C(F)(F)F)C2)c2ccccc12)NCC(F)(F)F (racemic) [Compound 35]
very good to excellent: [1] | [2] | [3]; sprayed at 250 ppm

O=C(CNC(=O)c1ccc(C2=NOC(c3cc(C(F)(F)F)cc(C(F)(F)F)c3)(C(F)(F)F)C2)c2ccccc12)NCC(F)(F)F (racemic) [Compound 37]
very good to excellent: [1] | [2] | [3]; sprayed at 50 ppm | [3]; sprayed at 250 ppm

CC(C)NC(=O)CNC(=O)c1ccc(C2=NOC(c3cccc(C(F)(F)F)c3)(C(F)(F)F)C2)c2ccccc12 (racemic) [Compound 38]
very good to excellent: [1] | [2] | [3]; sprayed at 50 ppm | [3]; sprayed at 250 ppm

CS(=O)(=O)CCNC(=O)c1ccc(C2=NOC(c3cccc(C(F)(F)F)c3)(C(F)(F)F)C2)c2ccccc12 (racemic) [Compound 39]
very good to excellent: [1] | [2] | [3]; sprayed at 50 ppm | [3]; sprayed at 250 ppm

CC(C)NC(=O)CNC(=O)c1ccc(C2=NOC(c3cc(C(F)(F)F)cc(C(F)(F)F)c3)(C(F)(F)F)C2)c2ccccc12 (racemic) [Compound 40]
very good to excellent: [1] | [2] | [3]; sprayed at 50 ppm | [3]; sprayed at 250 ppm

CC(C)(O)CNC(=O)c1ccc(C2=NOC(c3cccc(C(F)(F)F)c3)(C(F)(F)F)C2)c2ccccc12 (racemic) [Compound 43]
very good to excellent: [1] | [2] | [3]; sprayed at 250 ppm

CCSCCCNC(=O)c1ccc(C2=NOC(c3cccc(C(F)(F)F)c3)(C(F)(F)F)C2)c2ccccc12 (racemic) [Compound 48]
very good to excellent: [1] | [2] | [3]; sprayed at 250 ppm

CS(=O)(=O)CCNC(=O)c1ccc(C2=NOC(c3cc(C(F)(F)F)cc(C(F)(F)F)c3)(C(F)(F)F)C2)c2ccccc12 (racemic) [Compound 49]
very good to excellent: [1] | [2] | [3]; sprayed at 50 ppm | [3]; sprayed at 250 ppm

CSCCNC(=O)c1ccc(C2=NOC(c3cc(Br)cc(C(F)(F)F)c3)(C(F)(F)F)C2)c2ccccc12 (racemic) [Compound 50]
very good to excellent: [1] | [2] | [3]; sprayed at 50 ppm | [3]; sprayed at 250 ppm

CCSCCNC(=O)c1ccc(C2=NOC(c3cccc(C(F)(F)F)c3)(C(F)(F)F)C2)c2ccccc12 (racemic) [Compound 51]
very good to excellent: [1] | [2] | [3]; sprayed at 50 ppm | [3]; sprayed at 250 ppm

O=C(CNC(=O)c1ccc(C2=NOC(c3cc(Br)cc(C(F)(F)F)c3)(C(F)(F)F)C2)c2ccccc12)NCC(F)(F)F (racemic) [Compound 52]
very good to excellent: [1] | [2] | [3]; sprayed at 50 ppm | [3]; sprayed at 250 ppm

CC(C)NC(=O)CNC(=O)c1ccc(C2=NOC(c3cc(Br)cc(C(F)(F)F)c3)(C(F)(F)F)C2)c2ccccc12 (racemic) [Compound 53]
very good to excellent: [1] | [2] | [3]; sprayed at 50 ppm | [3]; sprayed at 250 ppm

CS(=O)(=O)CCNC(=O)c1ccc(C2=NOC(c3cc(Br)cc(C(F)(F)F)c3)(C(F)(F)F)C2)c2ccccc12 (racemic) [Compound 54]
very good to excellent: [1] | [2] | [3]; sprayed at 50 ppm | [3]; sprayed at 250 ppm
